# US20060083680A1, “Diphenyl ether derivatives and their use for imaging serotonin transporters” (The Trustees of the University of Pennsylvania, priority 2004, published 2006)
# Where “and” joins values, the source holds several entries; their conditions need not be identical. Equal entries are not always repeated. Entries after “also recorded” stand apart in the source; their conditions may differ. Where two headings read alike, the source gives them in different places.
# How the values were obtained:
# [1] = target: T1, SERT (serotonin transporter) (Rattus norvegicus, UniProt P31652); experiment: In vitro binding assay, membranes of LLC-PK1 cells expressing SERT, [^125I]IDAM
# T1 construct: membrane homogenates
# Protocol: (§1) Preparation of membrane homogenates: LLC-PK1 cells from pig kidney permanently expressing DAT, NET and SERT, respectively (LLC-DAT, LLC-NET and LLC-SERT) were kindly provided by Dr. G. Rudnick at Yale University. These cells were grown to confluence as a monolayer on 15 cm petri dish as reported previously. […] Cells were then washed once with phosphate buffer saline (w/ Ca^2+ and Mg^2+) (Bio-Whittaker) and harvested with 10 mL PBS by scraping. The cell suspensions were homogenized on ice for 20 strokes and centrifuged at 17,000 rpm for 20 min at 4° C. The pellets were re-suspended in PBS, frozen quickly in liquid N2 and stored in a −70° C. freezer.
# (§2) Binding assays: Binding assays were performed in a final volume of 0.2 mL. […] Incubation was carried out for one h at room temperature and the bound ligand was collected on glass fiber filters (Schleicher & Schuell No. 25, Keene, N.H.) presoaked with 1% polyethylenimine (Sigma, St. Louis, Mo.) and counted in a gamma counter (Packard 5000). Results of competition experiments were subjected to nonlinear regression analysis using EBDA (Elsevier-BIOSOFT, Cambridge, UK).
# [2] = target: T2, DAT (dopamine transporter) (Rattus norvegicus, UniProt P23977); experiment: In vitro binding assay, membranes of LLC-PK1 cells expressing DAT, [^125I]IPT
# T2 construct: membrane homogenates
# Protocol: as §1, §2
# [3] = target: T3, NET (norepinephrine transporter) (Homo sapiens, UniProt P23975); experiment: In vitro binding assay, membranes of LLC-PK1 cells expressing NET, [^125I]IPT
# T3 construct: membrane homogenates
# Protocol: as §1, §2
# [4] = Partition coefficient 1-octanol/buffer; assay type: physicochemical; conditions: 1-octanol/buffer pH 7.4, 0.1 M phosphate
# Protocol: The test tube was vortexed for 3 min at room temperature, then centrifuged for 5 min. Two weighed samples (2 g each) from the 1-octanol and buffer layers were counted in a well counter. The partition coefficient was determined by calculating the ratio of cpm/g of 1-octanol to that of buffer. Samples from the 1-octanol layer were re-partitioned until consistent partition coefficient values were obtained. The measurement was repeated 3 times.
# [5] = Biodistribution in rats after iv injection (organs); assay type: in vivo
# Protocol: Biodistribution in rats: Three rats per group were used for each biodistribution study. While under ether anesthesia, 0.2 mL of a saline solution containing 10 μCi of radioactive tracer was injected into the femoral vein. The rats were sacrificed at the time indicated by cardiac excision while under ether anesthesia. Organs of interest were removed and weighed, and the radioactivity was counted. The percent dose per organ was calculated by a comparison of the tissue counts to counts of 1% of the initial dose (100 times diluted aliquots of the injected material) measured at the same time.
# serotonin transporters = target: T4, serotonin transporters (Rattus norvegicus, UniProt P31652); experiment: Regional brain distribution and specific binding ratio in rats; assay type: in vivo
# T4 construct: from tissue; host or cells: rat brain in vivo (hypothalamus, cortex, striatum, hippocampus, cerebellum); ex vivo brain sections
# Protocol: Regional brain distribution in rats was measured after an i.v. injection of the radioactive tracer. Samples from different brain regions: cortex (frontal plus occipital), striatum, hippocampus, cerebellum and hypothalamus were dissected, weighed and counted. The percentage dose/g of each sample was calculated by comparing sample counts with the counts of the diluted initial dose described above. The specific binding ratio in each region was obtained by dividing the % dose/gram values between region by that in the cerebellum ([region-cerebellum/cerebellum]). The cerebellum region containing little or no serotonin transporters was used as the background region.
# SERT binding sites [6] = target: T5, SERT binding sites (Rattus norvegicus, UniProt P31652); experiment: In vivo competitive binding / blocking of [^125I]4 regional uptake; conditions: rats, drug 2 mg/kg i.v. 5 min prior to tracer, 120 min after [^125I]4
# T5 construct: from tissue; host or cells: rat brain in vivo (hypothalamus, cortex, striatum, hippocampus, cerebellum); ex vivo brain sections
# Source text: The reduction of regional specific binding in the drug-pretreated rats was compared to the control animals with saline pretreatment.
# SERT binding sites [7] = target: T5, SERT binding sites; experiment: Ex vivo autoradiography of rat brain sections; assay type: in vivo, rats; conditions: rat, 2 mg/Kg 5 min prior to [^125I]4
# [8] = Stability of the radioactive material
# [9] = LLC-PK1 cells expressing SERT, read-out: Ki SERT
# T3 sequence (P23975 whole entry): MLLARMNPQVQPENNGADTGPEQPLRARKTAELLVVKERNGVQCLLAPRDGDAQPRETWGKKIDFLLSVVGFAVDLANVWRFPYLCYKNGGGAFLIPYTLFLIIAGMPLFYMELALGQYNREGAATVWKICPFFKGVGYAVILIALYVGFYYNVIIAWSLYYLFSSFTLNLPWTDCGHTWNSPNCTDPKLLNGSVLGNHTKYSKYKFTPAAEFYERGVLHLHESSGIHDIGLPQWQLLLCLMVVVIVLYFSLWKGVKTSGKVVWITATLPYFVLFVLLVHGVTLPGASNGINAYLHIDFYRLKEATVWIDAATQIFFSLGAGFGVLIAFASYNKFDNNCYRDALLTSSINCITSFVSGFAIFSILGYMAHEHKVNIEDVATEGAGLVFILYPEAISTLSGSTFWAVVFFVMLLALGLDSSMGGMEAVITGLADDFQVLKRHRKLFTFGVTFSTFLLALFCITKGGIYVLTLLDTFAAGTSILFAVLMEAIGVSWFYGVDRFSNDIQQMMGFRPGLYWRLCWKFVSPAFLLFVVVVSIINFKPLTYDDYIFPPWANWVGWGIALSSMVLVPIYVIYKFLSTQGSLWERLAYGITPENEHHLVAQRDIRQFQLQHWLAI
# T2 sequence (P23977 whole entry): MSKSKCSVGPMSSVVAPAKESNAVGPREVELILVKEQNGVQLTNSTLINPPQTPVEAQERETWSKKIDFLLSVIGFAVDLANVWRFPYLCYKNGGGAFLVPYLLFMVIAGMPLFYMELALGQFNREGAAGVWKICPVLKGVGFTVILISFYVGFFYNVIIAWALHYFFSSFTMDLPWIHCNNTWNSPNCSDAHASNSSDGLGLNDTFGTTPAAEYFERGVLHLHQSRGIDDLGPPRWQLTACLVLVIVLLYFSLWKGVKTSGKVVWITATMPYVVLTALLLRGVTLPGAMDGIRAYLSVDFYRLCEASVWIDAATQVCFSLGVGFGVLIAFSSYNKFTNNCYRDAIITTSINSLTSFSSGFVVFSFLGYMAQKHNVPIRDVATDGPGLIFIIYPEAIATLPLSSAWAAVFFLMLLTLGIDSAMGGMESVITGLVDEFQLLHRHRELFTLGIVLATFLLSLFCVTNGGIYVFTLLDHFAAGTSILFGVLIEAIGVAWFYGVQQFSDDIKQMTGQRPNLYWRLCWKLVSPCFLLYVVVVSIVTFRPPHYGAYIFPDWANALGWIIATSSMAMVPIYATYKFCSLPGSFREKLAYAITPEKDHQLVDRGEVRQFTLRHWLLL
# T4 sequence (P31652 whole entry): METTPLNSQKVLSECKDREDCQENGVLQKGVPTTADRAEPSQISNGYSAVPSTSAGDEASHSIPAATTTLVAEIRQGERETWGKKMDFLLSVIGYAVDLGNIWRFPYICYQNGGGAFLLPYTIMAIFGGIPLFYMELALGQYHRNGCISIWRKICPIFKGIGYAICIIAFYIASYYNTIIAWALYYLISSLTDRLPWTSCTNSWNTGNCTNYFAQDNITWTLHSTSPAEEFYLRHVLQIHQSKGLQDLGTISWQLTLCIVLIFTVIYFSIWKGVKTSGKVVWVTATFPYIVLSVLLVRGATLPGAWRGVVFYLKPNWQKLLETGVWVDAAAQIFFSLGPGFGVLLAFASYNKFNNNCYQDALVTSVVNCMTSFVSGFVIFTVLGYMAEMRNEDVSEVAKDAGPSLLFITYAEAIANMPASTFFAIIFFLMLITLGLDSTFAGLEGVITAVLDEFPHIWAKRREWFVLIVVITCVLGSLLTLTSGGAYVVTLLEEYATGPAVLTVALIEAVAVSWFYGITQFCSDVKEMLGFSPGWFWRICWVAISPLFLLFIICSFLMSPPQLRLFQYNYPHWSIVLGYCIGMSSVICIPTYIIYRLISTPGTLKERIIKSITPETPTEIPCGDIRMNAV
# T1 sequence (P31652 whole entry): as above
# T5 sequence (P31652 whole entry): as above
structure (smiles),measurement,setting,value
"CN(C)Cc1ccccc1Oc1ccc(I)cc1N [Compound 4, 2-(2-(Dimethylaminomethyl)phenoxy)-5-iodophenylamine]",Ki,[1],0.37 ± 0.11 nM
same,selectivity for SERT over NET and DAT,[1],more than 500 fold
same,Ki,[2],309 ± 65 nM
same,Ki,[3],286 ± 36 nM
same,Partition coefficient,[4],418
same,increase in brain uptake vs ADAM (3),[5]; 2 and 4 h after i.v. injection,two to three-fold increase
same,brain uptake,[5]; 2 h after i.v. injection,1.08 % dose/brain
same,brain uptake,[5]; 4 h after i.v. injection,0.33 % dose/brain
same,hypothalamus uptake compared to other radioiodinated compounds,serotonin transporters; 60-240 min post i.v. injection,highest hypothalamus uptake among all of the radioiodinated compounds
same,higher uptake in hypothalamus than ADAM (3),serotonin transporters; between 2 and 4 h,more than 200%
same,Regional brain distribution HY (hypothalamus),"serotonin transporters; iv, 120 min",0.92 % dose/g
same,Regional brain distribution HY (hypothalamus),"serotonin transporters; iv, 240 min",0.32 % dose/g
"CN(C)Cc1ccccc1Sc1ccc(C#N)cc1N [DASB, reference compound]",Ki,[1]; [9],1.1 ± 0.04 nM
same,Ki,[2],> 1000 nM
"CN(C)Cc1ccccc1Sc1ccc([125I])cc1N [[^125I]ADAM (3), reference compound]",Partition coefficient,[4],335
COC(=O)C(c1ccccc1)C1CCCCN1 (stereo not drawn) [methylphenidate],effect of pretreatment on specific binding/uptake of [^125I]4 in hypothalamus,SERT binding sites [6],did not show any significant effect
CSc1ccc([C@@H]2CN3CCC[C@@H]3c3ccccc32)cc1 [(+)McN5652],effect of pretreatment on specific binding/uptake of [^125I]4 in hypothalamus,SERT binding sites [6],completely eliminated the specific binding; also recorded: significantly blocked
same,effect of pretreatment on specific uptake of [^125I]4 in brain regions (autoradiography),SERT binding sites [7],totally eliminated
CCN1CCC[C@H]1CNC(=O)c1c(O)c(Cl)cc(Cl)c1OC [raclopride],effect of pretreatment on specific binding/uptake of [^125I]4 in hypothalamus,SERT binding sites [6],did not show any significant effect
"CN(C)Cc1ccccc1Sc1ccc(I)cc1CO [Compound 1, reference compound]",Ki,[1]; [9],0.097 ± 0.013 nM
same,Ki,[2],> 1000 nM
same,Ki,[3],234 ± 26 nM
"CN(C)Cc1ccccc1Oc1ccc([125I])cc1N [[^123I]4, [^125I][^123I]2-(2-(Dimethylaminomethyl)phenoxy)-5-iodophenylamine]",stability after labeling,[8]; after labeling,24 h
"CN(C)Cc1ccccc1Cc1ccc([125I])cc1N [[^125I]5, 2-(2-(Dimethylaminomethyl)benzyl)-5-[^125I]iodophenylamine]",Partition coefficient,[4],"1,730"
same,brain uptake,[5]; 2 min post-injection,1.77 % dose and 1.77±0.049 % dose
same,"Ratio of (Region-Cerebellum)/Cerebellum, HY","serotonin transporters; iv, 120 min",2.43
same,stability in a refrigerator,[8]; refrigerator,stable in a refrigerator at least for three weeks
O=C(c1ccc(F)cc1)C1CCN(CCn2c(=O)[nH]c3ccccc3c2=O)CC1 [ketanserin],effect of pretreatment on specific binding/uptake of [^125I]4 in hypothalamus,SERT binding sites [6],did not show any significant effect
"CN(C)Cc1ccccc1Cc1ccc(I)cc1N [Compound 5, 2-(2-(dimethylaminomethyl)benzyl)-5-iodophenylamine]",Ki,[1]; [9],48.6 ± 4.1 nM
same,Ki,[2],> 1000 nM
same,Ki,[3],17 ± 4 nM
"CN(C)Cc1ccccc1Oc1ccc(I)cc1CO [Compound 2, reference compound]",Ki,[2],> 1000 nM
same,Ki,[3],20 ± 2 nM
